Key:
Diamond back moth = test: insecticidal activity against diamond back moth, airbrush spray; assay type: in vivo; details: for control (test results against diamond back moth): mortality after 72 hrs
Procedure, shortened: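 Airbrush leaf-disc spray test: both faces of 2 cm cabbage discs received 0.5 ml of test solution at 0.7 kg/cm^2. Solutions were made in acetone:methanol (1:1) and brought to concentration with 0.1% Tween 80 in water. Ten second-instar larvae per disc, triplicates, were held at 25° C and 60˜70% R.H., with mortality recorded at 72 hrs.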

armyworm = test: bioactivity test against armyworm, airbrush spray; assay type: in vivo; details: for control (test results against armyworm): mortality after 72 h
wheat powdery mildew = test: protectant activity in vivo against wheat powdery mildew
carmine spider mite = test: bioactivity test against carmine spider mite, airbrush spray; assay type: in vivo; details: for control against carmine spider mite: mortality after 72 hrs
Procedure, shortened: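 Broadbean seedlings infested with adult mites were sprayed with compound (acetone/methanol stock diluted in 0.1% Tween 80 water) by airbrush at 0.7 kg/cm^2, 0.5 ml. Three replicates were run. Mortality was scored after 72 hrs.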

[1] = system: Green peach aphids (Myzus Persicae Sulzer); test: bioactivity test against green peach aphid, airbrush foliar spray; assay type: in vivo; details: for control (test results against green peach aphid): death rate after 48 hrs
Procedure, shortened: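 Aphids (15-30 per cabbage leaf disc) on moist filter paper were airbrush-sprayed at 10 psi, 0.5 mL, with compound from acetone:methanol (1:1) diluted in water with 0.1% tween 80. Held at 25±1 C, 60±5% RH; survivors counted after 48 hrs to give death rates.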

corn rust = test: protectant activity in vivo against corn rust

Compound | control (test results against diamond back moth) (Diamond back moth; 600 ppm) [%] | control (test results against armyworm) (armyworm; 600 ppm) [%] | protectant activity against wheat powdery mildew in vivo (wheat powdery mildew; 400 ppm) [%] | Insecticidal activity against carmine spider mite (% ) (carmine spider mite; 600 mg/L, contrastive test) [%] | control against carmine spider mite (carmine spider mite; 100 ppm) [%] | control against carmine spider mite (carmine spider mite; 600 ppm) [%] | control (test results against green peach aphid) ([1]; 10 ppm) [%] | control (test results against green peach aphid) ([1]; 100 ppm) [%] | control (test results against green peach aphid) ([1]; 600 ppm) [%] | protectant activity against corn rust in vivo (corn rust; 100 ppm) [%] | protectant activity against corn rust in vivo (corn rust; 400 ppm) [%] | Insecticidal activity against peach aphid (%) ([1]; 2.5 mg/L, contrastive test) | Insecticidal activity against peach aphid (%) ([1]; 5 mg/L, contrastive test) | Insecticidal activity against peach aphid (%) ([1]; 10 mg/L, contrastive test) | Insecticidal activity against peach aphid (%) ([1]; 100 mg/L, contrastive test) | Insecticidal activity against peach aphid (%) ([1]; 600 mg/L, contrastive test) | further results
Cc1ncnc(NCCc2ccc(Oc3ccc(C(F)(F)F)cn3)cc2)c1Cl [Compound I-6734] | 100 | 100 | 100 | 100 | 100 | 100 | 100 | 100 | 100 | 100 | 100 |  |  |  |  |  | pest or weed control at 10 µg/mL (Diamond back moth; 72 h, 10 mg/L): 40%; pest or weed control at 100 µg/mL (Diamond back moth; 72 h, 100 mg/L): 52%; pest or weed control at 600 µg/mL (Diamond back moth; 72 h, 600 mg/L): 100%; Insecticidal activity against carmine spider mite (% ) (carmine spider mite; 2.5 mg/L): 51%; Insecticidal activity against carmine spider mite (% ) (carmine spider mite; 5 mg/L): 57%; Insecticidal activity against carmine spider mite (% ) (carmine spider mite; 10 mg/L, contrastive test): 82%; Insecticidal activity against carmine spider mite (% ) (carmine spider mite; 100 mg/L, contrastive test): 100%
CCc1ncnc(NCCc2ccc(Oc3ccc(C(F)(F)F)cn3)cc2)c1Cl [Compound I-6756] | 100 | 100 | 100 | 100 | 100 | 100 | 100 | 100 | 100 | 100 | 100 | 100 | 100 | 100 | 100 | 100 | control (test results against diamond back moth) (Diamond back moth; 100 ppm): 100%; Insecticidal activity against armyworm (%) (armyworm; 10 mg/L): 28%; Insecticidal activity against armyworm (%) (armyworm; 100 mg/L): 100%; Insecticidal activity against armyworm (%) (armyworm; 600 mg/L): 100%; control (test results against armyworm) (armyworm; 100 ppm): 100%; protectant activity against wheat powdery mildew in vivo (wheat powdery mildew; 100 ppm): 100%; Insecticidal activity against carmine spider mite (% ) (carmine spider mite; 2.5 mg/L): 71%; Insecticidal activity against carmine spider mite (% ) (carmine spider mite; 5 mg/L): 88%; Insecticidal activity against carmine spider mite (% ) (carmine spider mite; 10 mg/L, contrastive test): 100%; Insecticidal activity against carmine spider mite (% ) (carmine spider mite; 100 mg/L, contrastive test): 100%; control against carmine spider mite (carmine spider mite; 10 ppm): 100%; Insecticidal activity against peach aphid (%) ([1]; 1.25 mg/L, contrastive test): 100%; control (test results against green peach aphid) ([1]; 2.5 ppm): 100%; control (test results against green peach aphid) ([1]; 5 ppm): 100%
CC(Cl)c1ncnc(NCCc2ccc(Oc3ncc(C(F)(F)F)cc3Cl)cc2)c1Cl (centres unmarked) [CK44, reference compound] |  |  |  | 0 |  |  |  |  |  |  |  | 0 | 19 | 35 | 98 | 100 | Insecticidal activity against diamond back moth (%) (Diamond back moth; 10 mg/L): 10%; Insecticidal activity against diamond back moth (%) (Diamond back moth; 100 mg/L): 25%; Insecticidal activity against diamond back moth (%) (Diamond back moth; 600 mg/L): 80%; Insecticidal activity against armyworm (%) (armyworm; 600 mg/L): 0%; control effect against wheat powdery mildew (%) (wheat powdery mildew; 400 mg/L, protectant activity): 0%; control effect against corn rust (%) (corn rust; 400 mg/L, protectant activity): 85%
Cc1ncnc(NCCc2ccc(Oc3cccc(C(F)(F)F)c3)nc2)c1Cl [III-21] | 100 | 100 | 100 |  |  | 100 |  |  | 100 | 100 | 100 |  |  |  |  |  | 
Cc1ncnc(NCCc2ccc(Oc3ccc(Cl)cc3)cc2)c1Cl [II-19] | 100 | 100 | 100 |  | 100 | 100 | 100 | 100 | 100 |  | 100 |  |  | 100 | 100 | 100 | Insecticidal activity against diamond back moth (%) (Diamond back moth; 10 mg/L): 50%; Insecticidal activity against diamond back moth (%) (Diamond back moth; 100 mg/L): 100%; Insecticidal activity against diamond back moth (%) (Diamond back moth; 600 mg/L): 100%; control (test results against diamond back moth) (Diamond back moth; 100 ppm): 100%
Cc1ncnc(NCCc2ccc(Oc3ccc(C(F)(F)F)cn3)cc2)c1Cl [Compound I-6735] | 100 | 100 | 100 |  | 100 | 100 | 100 | 100 | 100 | 100 | 100 | 80 | 100 | 100 | 100 | 100 | Insecticidal activity against peach aphid (%) ([1]; 1.25 mg/L, contrastive test): 67%; control (test results against green peach aphid) ([1]; 5 ppm): 100%
Cc1ncnc(NC(C)c2ccc(Oc3ccc(C(F)(F)F)cc3Cl)cc2)c1Cl (centres unmarked) [CK30, reference compound] |  |  |  |  |  |  |  |  |  |  |  |  |  |  |  |  | pest or weed control at 600 µg/mL (Diamond back moth; 72 h, 600 mg/L): 0%; pest or weed control at 600 µg/mL (armyworm; 72 h, 600 mg/L, read-out: Insecticidal activity against armyworm (%)): 57%; pest or weed control at 6.25 µg/mL (wheat powdery mildew; Triticum aestivum, 168 h, read-out: control effect against wheat powdery mildew (%), 6.25 mg/L, protectant activity): 0%; pest or weed control at 25 µg/mL (wheat powdery mildew; Triticum aestivum, 168 h, read-out: control effect against wheat powdery mildew (%), 25 mg/L, protectant activity): 20%; pest or weed control at 100 µg/mL (wheat powdery mildew; Triticum aestivum, 168 h, read-out: control effect against wheat powdery mildew (%), 100 mg/L, protectant activity): 80%; pest or weed control at 400 µg/mL (wheat powdery mildew; Triticum aestivum, 168 h, read-out: control effect against wheat powdery mildew (%), 400 mg/L, protectant activity): 100%; pest or weed control at 10 µg/mL (carmine spider mite; Tetranychus cinnabarinus, 72 h, 10 mg/L, contrastive test, read-out: Insecticidal activity against carmine spider mite (% )): 28%; pest or weed control at 100 µg/mL (carmine spider mite; Tetranychus cinnabarinus, 72 h, 100 mg/L, contrastive test, read-out: Insecticidal activity against carmine spider mite (% )): 100%; pest or weed control at 600 µg/mL (carmine spider mite; Tetranychus cinnabarinus, 72 h, 600 mg/L, contrastive test, read-out: Insecticidal activity against carmine spider mite (% )): 100%; pest or weed control at 10 µg/mL ([1]; Myzus persicae, foliar, 48 h, 10 mg/L, contrastive test, read-out: Insecticidal activity against peach aphid (%)): 0%; pest or weed control at 100 µg/mL ([1]; Myzus persicae, foliar, 48 h, 100 mg/L, contrastive test, read-out: Insecticidal activity against peach aphid (%)): 50%; pest or weed control at 600 µg/mL ([1]; Myzus persicae, foliar, 48 h, 600 mg/L, contrastive test, read-out: Insecticidal activity against peach aphid (%)): 93%; pest or weed control at 6.25 µg/mL (corn rust; Zea mays, 168 h, read-out: control effect against corn rust (%), 6.25 mg/L, protectant activity): 0%; pest or weed control at 25 µg/mL (corn rust; Zea mays, 168 h, read-out: control effect against corn rust (%), 25 mg/L, protectant activity): 0%; pest or weed control at 100 µg/mL (corn rust; Zea mays, 168 h, read-out: control effect against corn rust (%), 100 mg/L, protectant activity): 0%; pest or weed control at 400 µg/mL (corn rust; Zea mays, 168 h, read-out: control effect against corn rust (%), 400 mg/L, protectant activity): 0%

— patent US9770026B2, “Substituted pyrimidine compound and uses thereof” (Shenyang Sinochem Agrochemicals R&D Co., Ltd., priority 2012, dated 2017)
